*1 amine or outer side, *2 acyl side, *3 side chain or, on linkers, in order; H or OH if unused. Side-chain parts run from the residue outwards. The star is where a group is joined. C18 diacid = O=C(O)CCCCCCCCCCCCCCCCC(=O)*; γGlu = O=C(O)[C@H](CCC(=O)[*:2])N[*:1]; Isovaleryl = CC(C)CC(=O)*; Ahx = NCCCCCC(=O)O
T1: human NPY1 receptor (hY1R) (Homo sapiens, UniProt P25929)
T1 construct: expressed in transfected cells; host or cells: CHO-K1
T1 sequence (P25929 1-384): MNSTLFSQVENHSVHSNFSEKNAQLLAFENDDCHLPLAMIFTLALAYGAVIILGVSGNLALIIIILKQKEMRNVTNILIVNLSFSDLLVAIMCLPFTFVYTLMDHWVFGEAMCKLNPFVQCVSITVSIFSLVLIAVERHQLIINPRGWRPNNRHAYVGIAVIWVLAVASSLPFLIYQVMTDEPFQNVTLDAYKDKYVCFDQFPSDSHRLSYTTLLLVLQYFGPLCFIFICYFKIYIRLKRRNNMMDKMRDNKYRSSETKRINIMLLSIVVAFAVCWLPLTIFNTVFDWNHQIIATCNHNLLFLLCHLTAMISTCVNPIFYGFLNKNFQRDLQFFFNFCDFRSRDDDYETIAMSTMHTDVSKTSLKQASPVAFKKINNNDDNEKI

T2: Human Neuropeptide Y2 Receptor (Homo sapiens, UniProt P49146)
T2 construct: purchased CHEMICON HTS066M
T2 sequence (P49146 1-381): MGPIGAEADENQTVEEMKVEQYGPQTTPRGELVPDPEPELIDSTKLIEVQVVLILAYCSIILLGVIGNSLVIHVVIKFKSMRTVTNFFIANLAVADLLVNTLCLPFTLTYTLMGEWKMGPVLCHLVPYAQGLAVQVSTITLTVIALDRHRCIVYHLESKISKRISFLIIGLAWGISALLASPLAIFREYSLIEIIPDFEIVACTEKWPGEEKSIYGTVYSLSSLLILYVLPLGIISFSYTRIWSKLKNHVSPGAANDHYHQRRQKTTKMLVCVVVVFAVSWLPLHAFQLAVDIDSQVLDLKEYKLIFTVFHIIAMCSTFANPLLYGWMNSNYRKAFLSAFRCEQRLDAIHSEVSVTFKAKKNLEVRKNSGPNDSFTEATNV

T3: human NPY2 receptor (hY2R) (Homo sapiens, UniProt P49146)
T3 sequence (P49146 1-381): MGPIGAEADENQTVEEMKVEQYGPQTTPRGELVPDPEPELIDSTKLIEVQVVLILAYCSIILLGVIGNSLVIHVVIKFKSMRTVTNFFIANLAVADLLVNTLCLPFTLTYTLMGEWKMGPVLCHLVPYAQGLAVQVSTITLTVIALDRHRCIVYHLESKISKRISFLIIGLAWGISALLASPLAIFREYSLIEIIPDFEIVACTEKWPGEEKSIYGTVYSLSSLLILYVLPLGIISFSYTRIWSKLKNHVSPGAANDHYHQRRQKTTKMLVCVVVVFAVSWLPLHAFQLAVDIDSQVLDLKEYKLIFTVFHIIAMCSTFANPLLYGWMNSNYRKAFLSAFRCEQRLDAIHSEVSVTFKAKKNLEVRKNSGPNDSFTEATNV

T4: human NPY5 receptor (hY5R) (Homo sapiens, UniProt Q15761)
T4 sequence (Q15761 1-445): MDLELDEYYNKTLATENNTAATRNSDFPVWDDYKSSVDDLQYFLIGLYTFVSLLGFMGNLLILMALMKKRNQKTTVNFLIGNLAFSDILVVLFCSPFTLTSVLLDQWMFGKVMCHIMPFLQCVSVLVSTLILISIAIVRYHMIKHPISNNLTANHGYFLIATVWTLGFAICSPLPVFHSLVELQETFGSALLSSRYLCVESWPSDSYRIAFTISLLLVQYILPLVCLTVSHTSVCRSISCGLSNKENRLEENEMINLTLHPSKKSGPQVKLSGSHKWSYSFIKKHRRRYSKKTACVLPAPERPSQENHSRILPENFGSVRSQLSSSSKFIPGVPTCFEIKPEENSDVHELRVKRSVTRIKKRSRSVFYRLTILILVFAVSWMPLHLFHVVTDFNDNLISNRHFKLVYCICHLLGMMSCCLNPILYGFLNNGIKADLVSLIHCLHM

T5: human NPY2 receptor (NPY2R) (human, UniProt P49146)
T5 chain: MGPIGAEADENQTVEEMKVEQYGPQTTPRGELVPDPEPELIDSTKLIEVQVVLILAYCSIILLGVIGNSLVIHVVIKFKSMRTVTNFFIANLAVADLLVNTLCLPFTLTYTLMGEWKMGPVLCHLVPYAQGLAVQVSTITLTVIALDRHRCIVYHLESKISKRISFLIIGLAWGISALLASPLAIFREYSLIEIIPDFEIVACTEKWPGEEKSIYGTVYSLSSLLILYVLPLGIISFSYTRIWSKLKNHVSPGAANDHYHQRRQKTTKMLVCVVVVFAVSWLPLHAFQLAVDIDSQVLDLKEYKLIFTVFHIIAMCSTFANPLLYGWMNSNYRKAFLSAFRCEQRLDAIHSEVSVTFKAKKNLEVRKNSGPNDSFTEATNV


Tests used:
[1] = molecular target: T1, human NPY1 receptor (hY1R); test: HTRF cAMP Gi assay, hY1R; format: cell-based; settings: CHO-K1 cells
[2] = molecular target: T2, Human Neuropeptide Y2 Receptor; test: Radioligand binding competition assay (RLB); settings: Table 3, 125I-PYY(1-36) competition; read-out: Ki
Method in brief: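 Displacement of radioligand is measured after 2 h at room temperature with receptor membranes in Mg2+/Ca2+ HEPES buffer, pH 7.4. Filter-bound radioactivity is counted and IC50 obtained from curve fitting.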

[3] = molecular target: T2, Human Neuropeptide Y2 Receptor; test: Activity (RLB binding) after incubation in solutions at different pH values; settings: apparent Ki of filtrate after incubation at pH8.1-8.2, assumed 10 mg/ml; read-out: RLB 8 (pH8.1-8.2)
Method: The filtration RLB assay was carried out in 96-well plates in a final volume of 100 μl per well. Freeze-dried test peptides were dissolved in 100% dimethyl sulfoxide (DMSO) to stock solutions of 1 mM and serial dilutions were performed in assay buffer (50 mM HEPES, 5 mM MgCl2, 1 mM CaCl2, pH 7.4) containing 0.2% ovalbumin. […] Next, 80 μL membranes (HTS066M, ChemiSCREEN™ Human Neuropeptide Y2 Receptor Membrane Preparation, CHEMICON) were added to each well to give a final protein concentration of 0.5 μg/well. The plates were sealed and incubated at room temperature for 2 hours in a plate shaker set at 400 rpm. The incubation was stopped by vacuum filtration onto 0.5% polyethylene amine (PE) presoaked GF/C filters using a 96-well FilterMate™ harvester (Perkin Elmer) followed by four washes with 300 μl/well ice-cold wash buffer (50 mM HEPES, 500 mM NaCl, pH7.4). Filter plates were then dried for 60 min at room temperature and the bottom of the plates was sealed with backing tape UniFilter-96. Finally, 50 μl/well scintillation counter cocktail (Microscint20, Packard) was added and the radioactivity was counted in the Packard TopCount NXT scintillation counter. IC50 values (the half maximal inhibitory concentration of the agonist) were calculated by nonlinear regression analysis of sigmoidal dose-response curves.
The peptide was (partially) dissolved by shaking the filter unit horizontally at approx. 400 rpm for 2 hours at room temperature. The sample was filtered to remove any insoluble particles.

[4] = molecular target: T3, human NPY2 receptor (hY2R); test: HTRF cAMP Gi assay, hY2R
[5] = molecular target: T4, human NPY5 receptor (hY5R); test: HTRF cAMP Gi assay, hY5R
Method: Briefly, the production of intracellular cAMP will generate a competition between unlabeled cAMP and exogenously added d2-cAMP for anti-cAMP antibodies conjugated to cryptate. CHO-K1 cells stably expressing the human NPY1, NPY2, NPY4 and NPY5 receptors were used with the cells brought to life from a frozen stock immediately before assay performance. 2000 cells per well were applied for all four NPY receptor subtype assays. A 384-well format was used applying a total volume of 20 μl using 5 μl cells, 2.5 μl peptide agonist, 2.5 μl forskolin and 5 μl of each of the fluorophores. […] Concentration-response evaluation of compounds was performed with 11 concentrations of agonist peptides (covering 3 decades). EC50 values were calculated by nonlinear regression using sigmoid concentration-response with variable slope.

[6] = Solubility determination
Method in brief: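 Shake-flask style: 10 mg/ml peptide (TFA salt), 0.1 M sodium diphosphate pH 6.4/7.0, 600 rpm, 2 h, RT; filter; dilute 1 mg/ml in 50% MeCN; RP-UPLC, 0–100% B over 2 min, 50 °C. Solubility = sample/control area ratio. Final pH recorded.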

[7] = molecular target: T6, human NPY4 receptor (hY4R) (Homo sapiens, UniProt P50391); test: HTRF cAMP Gi assay, hY4R; format: cell-based; settings: CHO-K1 cells
T6 construct: expressed in transfected cells; host or cells: CHO-K1

[8] = molecular target: T5, human NPY2 receptor (NPY2R); test: competition

T6 sequence (P50391 whole entry): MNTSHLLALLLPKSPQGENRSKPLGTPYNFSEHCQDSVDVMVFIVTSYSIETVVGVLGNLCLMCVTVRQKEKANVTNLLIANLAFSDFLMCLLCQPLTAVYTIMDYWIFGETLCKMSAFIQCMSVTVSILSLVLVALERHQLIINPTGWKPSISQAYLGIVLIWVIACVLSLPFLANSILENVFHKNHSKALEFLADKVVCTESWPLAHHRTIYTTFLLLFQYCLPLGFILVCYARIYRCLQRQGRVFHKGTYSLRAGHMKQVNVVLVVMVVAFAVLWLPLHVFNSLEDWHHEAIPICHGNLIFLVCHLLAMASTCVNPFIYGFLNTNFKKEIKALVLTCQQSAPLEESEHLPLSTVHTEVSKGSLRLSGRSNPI

EC50 [1] [nM] | Ki [2] [nM] | Ki [3] [nM] | EC50 [4] [nM] | EC50 [5] [nM] | Sol6 ([6]; pH 6) [mg/mL] | Sol7 ([6]; pH 7) [mg/mL] | EC50 [7] [nM] | Ki [8] [nM] | Molecule
> 5000 | 0.67 | 4.9 | 0.13 | > 5000 | 8.9 | 9.2 | > 5000 | – | CC(C)CC(=O)N[C@@H](C)C(=O)N1CCC[C@H]1C(=O)N[C@@H](CCC(=O)O)C(=O)N[C@@H](CCCCNC(=O)CCCCCNC(=O)CC[C@H](NC(=O)CCCCCCCCCCCCCCCCC(=O)O)C(=O)O)C(=O)N1CCC[C@H]1C(=O)N[C@@H](CCC(=O)O)C(=O)N[C@@H](C)C(=O)N[C@@H](CC(=O)O)C(=O)N[C@@H](C)C(=O)N[C@@H](CO)C(=O)N1CCC[C@H]1C(=O)N[C@@H](CCC(=O)O)C(=O)N[C@@H](CCC(=O)O)C(=O)N[C@@H](CC(C)C)C(=O)N[C@@H](CCC(N)=O)C(=O)N[C@@H](CCCNC(=N)N)C(=O)N[C@@H](Cc1ccc(O)cc1)C(=O)N[C@@H](Cc1ccc(O)cc1)C(=O)N[C@H](C(=O)N[C@@H](C)C(=O)N[C@@H](CC(C)C)C(=O)N[C@@H](CCCNC(=N)N)C(=O)N[C@@H](Cc1c[nH]cn1)C(=O)N[C@@H](Cc1ccc(O)cc1)C(=O)N[C@@H](Cc1ccc(O)cc1)C(=O)N[C@@H](CC(N)=O)C(=O)N[C@@H](Cc1c[nH]c2ccccc12)C(=O)N[C@@H](CC(C)C)C(=O)N[C@H](C(=O)N[C@@H](CCCNC(=N)N)C(=O)N[C@@H](CCC(N)=O)C(=O)N[C@@H](CCCNC(=N)N)C(=O)N[C@@H](Cc1ccc(O)cc1)C(N)=O)[C@@H](C)O)C(C)C [Compound 163, N{alpha-4}-(3-methylbutanoyl)-N{epsilon-7}-(6-[(4S)-4-carboxy-4-(17-carboxyheptadecanamido)butanamido]hexanoyl)-[4A,7K,9E,10A,18Q,22V,23A,28Y,30W,31L]-hPYY(4-36)]
– | – | – | – | – | – | – | – | 2.73 | Isovaleryl-APEK([Ahx-γGlu-C18 diacid])PEAEASPEELQRYYVSLRHYYNWLTRQRY-NH2 [Compound 122]

From patent publication US12391737B2, “Soluble NPY2 receptor agonists” (Boehringer Ingelheim International GmbH, priority 2020, dated 2025)
